Data from US11377442B2, “Small molecule agonists and antagonists of NR2F6 activity” (ZANDER THERAPEUTICS, INC., priority 2016, dated 2022).
Like-named read-outs stand apart in the source and are kept apart here.

Columns and labels:
Format in all cases: cell-based
[1] = molecular target: T1, NR2F6 (Homo sapiens, UniProt P10588); test: NR2F6 agonist screening, Firefly signal cmpd/DMSO
T1 construct: expressed in transfected cells; also transient transfection
T1 sequence (P10588 1-404): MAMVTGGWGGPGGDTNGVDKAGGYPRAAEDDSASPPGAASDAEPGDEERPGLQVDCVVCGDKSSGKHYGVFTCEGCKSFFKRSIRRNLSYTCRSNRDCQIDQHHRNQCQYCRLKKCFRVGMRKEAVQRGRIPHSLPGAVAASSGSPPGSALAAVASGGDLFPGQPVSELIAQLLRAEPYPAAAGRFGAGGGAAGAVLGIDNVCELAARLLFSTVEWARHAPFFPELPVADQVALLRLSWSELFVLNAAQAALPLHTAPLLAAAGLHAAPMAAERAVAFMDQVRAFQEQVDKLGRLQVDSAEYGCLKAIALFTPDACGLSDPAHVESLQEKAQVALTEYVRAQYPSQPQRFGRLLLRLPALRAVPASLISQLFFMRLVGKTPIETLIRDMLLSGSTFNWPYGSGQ

[2] = test system: Renilla; test: Renilla signal in NR2F6 agonist screening, cmpd/DMSO; settings: Renilla, F4
[3] = test system: HEK293 pGL4; test: Firefly_pGL signal, cmpd/DMSO (pGL4 control cells); settings: Homo sapiens
[4] = molecular target: T2, NR2F6 LBD (Homo sapiens, UniProt P10588); test: NR2F6 LBD transient transfection; settings: LBD
T2 construct: expressed in transfected cells
T2 sequence (P10588 165-393 limits assumed): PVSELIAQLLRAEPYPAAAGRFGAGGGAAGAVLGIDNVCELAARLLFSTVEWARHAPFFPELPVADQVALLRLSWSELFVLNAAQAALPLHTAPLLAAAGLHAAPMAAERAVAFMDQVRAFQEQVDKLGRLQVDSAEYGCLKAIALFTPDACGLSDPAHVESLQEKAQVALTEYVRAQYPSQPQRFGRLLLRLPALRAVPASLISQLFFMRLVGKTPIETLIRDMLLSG
Summary of the method: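 LBD-transfected cells treated at 40, 10, 2 and 0.5 μM (4 replicates); cytotoxicity measured in parallel, normalized to DMSO (0%) and zero signal (100%). Higher concentrations excluded where signal loss reflected toxicity.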

[5] = read-out: Renilla, F4, cmpd/DMSO (mean)
[6] = 1% FBS, read-out: Renilla, F4, 1% FBS, cmpd/DMSO (mean)
[7] = 10% FBS, read-out: Renilla, F4, 10% FBS, cmpd/DMSO (mean)
[8] = HEK293, 0.5 uM, pGL4, read-out: Firefly pGL4, cmpd/DMSO (mean)
[9] = HEK293, 2 uM, pGL4, read-out: Firefly pGL4, cmpd/DMSO (mean)
[10] = HEK293, 10 uM, pGL4, read-out: Firefly pGL4, cmpd/DMSO (mean)
[11] = HEK293, 40 uM, pGL4, read-out: Firefly pGL4, cmpd/DMSO (mean)
[12] = HEK293, pGL4, 1% FBS, 0.5 uM, read-out: Firefly, pGL4, 1% FBS, cmpd/DMSO (mean)
[13] = HEK293, pGL4, 1% FBS, 2 uM, read-out: Firefly, pGL4, 1% FBS, cmpd/DMSO (mean)
[14] = HEK293, pGL4, 1% FBS, 10 uM, read-out: Firefly, pGL4, 1% FBS, cmpd/DMSO (mean)
[15] = HEK293, pGL4, 1% FBS, 40 uM, read-out: Firefly, pGL4, 1% FBS, cmpd/DMSO (mean)
[16] = HEK293, pGL4, 10% FBS, 0.5 uM, read-out: Firefly, pGL4, 10% FBS, cmpd/DMSO (mean)
[17] = HEK293, pGL4, 10% FBS, 2 uM, read-out: Firefly, pGL4, 10% FBS, cmpd/DMSO (mean)
[18] = HEK293, pGL4, 10% FBS, 10 uM, read-out: Firefly, pGL4, 10% FBS, cmpd/DMSO (mean)
[19] = HEK293, pGL4, 10% FBS, 40 uM, read-out: Firefly, pGL4, 10% FBS, cmpd/DMSO (mean)

CCCN[C@H]1CS(=O)(=O)C[C@@H]1S(=O)(=O)c1ccc(Cl)cc1 [Compound D117]
Firefly F4, cmpd/DMSO (mean) ([1]; 0.5 uM): 1.1 | Firefly F4, cmpd/DMSO (mean) ([1]; 2 uM): 2.2 | Firefly F4, cmpd/DMSO (mean) ([1]; 10 uM): 4.7 | Firefly F4, cmpd/DMSO (mean) ([1]; 40 uM): 0.5 | F4, Firefly/Renilla for S/B(F4) > 3 ([1]; 1% FBS, 10 uM): 3.4 | Firefly, F4/pGL4 for S/B(F4) > 3 ([1]; 1% FBS, 10 uM): 3.2 | F4, Firefly/Renilla for S/B(F4) > 3 ([1]; 10% FBS, 10 uM): 2.3 | Firefly, F4/pGL4 for S/B(F4) > 3 ([1]; 10% FBS, 10 uM): 1.9 | Firefly, F4, 1% FBS, cmpd/DMSO (mean) ([1]; 1% FBS, 0.5 uM): 0.9 | Firefly, F4, 1% FBS, cmpd/DMSO (mean) ([1]; 1% FBS, 2 uM): 2.1 | Firefly, F4, 1% FBS, cmpd/DMSO (mean) ([1]; 1% FBS, 10 uM): 5.9 | Firefly, F4, 1% FBS, cmpd/DMSO (mean) ([1]; 1% FBS, 40 uM): 0.1 | Firefly, F4, 10% FBS, cmpd/DMSO (mean) ([1]; 10% FBS, 0.5 uM): 0.9 | Firefly, F4, 10% FBS, cmpd/DMSO (mean) ([1]; 10% FBS, 2 uM): 1.2 | Firefly, F4, 10% FBS, cmpd/DMSO (mean) ([1]; 10% FBS, 10 uM): 4.1 | Firefly, F4, 10% FBS, cmpd/DMSO (mean) ([1]; 10% FBS, 40 uM): 2.9 | fold induction at 0.5 µM [2, 5]: 1 | fold induction at 2 µM [2, 5]: 1.3 | fold induction at 10 µM [2, 5]: 1.7 | fold induction at 40 µM [2, 5]: 0.4 | fold induction at 0.5 µM [2, 6]: 1 | fold induction at 2 µM [2, 6]: 1.4 | fold induction at 10 µM [2, 6]: 1.7 | fold induction at 40 µM [2, 6]: 0.8 | fold induction at 0.5 µM [2, 7]: 1 | fold induction at 2 µM [2, 7]: 1 | fold induction at 10 µM [2, 7]: 1.8 | fold induction at 40 µM [2, 7]: 2.4 | fold induction at 0.5 µM [3, 8]: 1 | fold induction at 2 µM [3, 9]: 1.4 | fold induction at 10 µM [3, 10]: 4.6 | fold induction at 40 µM [3, 11]: 0.3 | fold induction at 0.5 µM [3, 12]: 1 | fold induction at 2 µM [3, 13]: 1.4 | fold induction at 10 µM [3, 14]: 1.9 | fold induction at 40 µM [3, 15]: 0.6 | fold induction at 0.5 µM [3, 16]: 1.1 | fold induction at 2 µM [3, 17]: 1.6 | fold induction at 10 µM [3, 18]: 2.2 | fold induction at 40 µM [3, 19]: 1.2 | Firefly LBD, cmpd/DMSO (mean) ([4]; 0.5 uM): 1.1 | Firefly LBD, cmpd/DMSO (mean) ([4]; 2 uM): 2.1 | Firefly LBD, cmpd/DMSO (mean) ([4]; 10 uM): 4.2 | Firefly LBD, cmpd/DMSO (mean) ([4]; 40 uM): 0.2

CCCCN[C@H]1CS(=O)(=O)C[C@@H]1S(=O)(=O)c1ccc(Cl)cc1 [Compound D119]
Firefly F4, cmpd/DMSO (mean) ([1]; 0.5 uM): 0.9 | Firefly F4, cmpd/DMSO (mean) ([1]; 2 uM): 2.0 | Firefly F4, cmpd/DMSO (mean) ([1]; 10 uM): 5.3 | Firefly F4, cmpd/DMSO (mean) ([1]; 40 uM): 0.6 | F4, Firefly/Renilla for S/B(F4) > 3 ([1]; 1% FBS, 10 uM): 2.5 | Firefly, F4/pGL4 for S/B(F4) > 3 ([1]; 1% FBS, 10 uM): 1.9 | F4, Firefly/Renilla for S/B(F4) > 3 ([1]; 10% FBS, 10 uM): 2.7 | Firefly, F4/pGL4 for S/B(F4) > 3 ([1]; 10% FBS, 10 uM): 3.3 | Firefly, F4, 1% FBS, cmpd/DMSO (mean) ([1]; 1% FBS, 0.5 uM): 1.5 | Firefly, F4, 1% FBS, cmpd/DMSO (mean) ([1]; 1% FBS, 2 uM): 1.8 | Firefly, F4, 1% FBS, cmpd/DMSO (mean) ([1]; 1% FBS, 10 uM): 4.4 | Firefly, F4, 1% FBS, cmpd/DMSO (mean) ([1]; 1% FBS, 40 uM): 0.2 | Firefly, F4, 10% FBS, cmpd/DMSO (mean) ([1]; 10% FBS, 0.5 uM): 1.5 | Firefly, F4, 10% FBS, cmpd/DMSO (mean) ([1]; 10% FBS, 2 uM): 1.1 | Firefly, F4, 10% FBS, cmpd/DMSO (mean) ([1]; 10% FBS, 10 uM): 7.3 | Firefly, F4, 10% FBS, cmpd/DMSO (mean) ([1]; 10% FBS, 40 uM): 1.6 | fold induction at 0.5 µM [2, 5]: 1.2 | fold induction at 2 µM [2, 5]: 1.2 | fold induction at 10 µM [2, 5]: 1.6 | fold induction at 40 µM [2, 5]: 0.2 | fold induction at 0.5 µM [2, 6]: 1.1 | fold induction at 2 µM [2, 6]: 1.1 | fold induction at 10 µM [2, 6]: 1.8 | fold induction at 40 µM [2, 6]: 0.4 | fold induction at 0.5 µM [2, 7]: 1.4 | fold induction at 2 µM [2, 7]: 1.5 | fold induction at 10 µM [2, 7]: 2.7 | fold induction at 40 µM [2, 7]: 1.3 | fold induction at 0.5 µM [3, 8]: 1.1 | fold induction at 2 µM [3, 9]: 1.5 | fold induction at 10 µM [3, 10]: 3.9 | fold induction at 40 µM [3, 11]: 0.6 | fold induction at 0.5 µM [3, 12]: 1.2 | fold induction at 2 µM [3, 13]: 1.4 | fold induction at 10 µM [3, 14]: 2.4 | fold induction at 40 µM [3, 15]: 0.7 | fold induction at 0.5 µM [3, 16]: 1.1 | fold induction at 2 µM [3, 17]: 1.2 | fold induction at 10 µM [3, 18]: 2.2 | fold induction at 40 µM [3, 19]: 0.5 | Firefly LBD, cmpd/DMSO (mean) ([4]; 0.5 uM): 1.0 | Firefly LBD, cmpd/DMSO (mean) ([4]; 2 uM): 1.5 | Firefly LBD, cmpd/DMSO (mean) ([4]; 10 uM): 3.4 | Firefly LBD, cmpd/DMSO (mean) ([4]; 40 uM): 0.5
